Data on 2 compounds can be found in patent publication US20240366511A1, “ORAL SOLID DOSE FORMULATIONS” (GLAXOSMITHKLINE INTELLECTUAL PROPERTY DEVELOPMENT LIMITED, priority 2021, published 2024).

Structures can show the parent of a compound that is named as a salt. Where two headings read alike, the source gives them in different places. A value given as a limit tells only on which side of the number the result lay.

The nature of data set [1]: Stability of crystal form under ambient conditions. In kind it is physicochemical. How it is done:
In another preparation, a spatula (<20 mg) of gepotidacin mesylate dihydrate (Form 1) was suspended in IPA (<1.5 ml). The suspension was heated with a heat gun to dissolve most of the solids, and then left to slowly cool to room temperature. The resultant crystals were filtered and analysed by DSC, TGA, and XRPD.

The nature of data set [2]: Solubility of gepotidacin mesylate dihydrate (Form 1) in water and simulated fluids. Type of data set: physicochemical. The following applies: 20 °C, thermodynamic from solid, as free base, 20-25° C., read-out: Solubility (mg/mL of free base at 20-25° C.). The method, then: The solubility of gepotidacin mesylate dihydrate (Form 1) was determined in simulated gastric fluid pH 1.6 (SGF), fasted state simulated intestinal fluid pH 6.5 (FaSSIF) and fed state simulated intestinal fluid pH 6.5 (FeSSIF) at ambient room temperature (20-25 C).

Consider `CS(=O)(=O)O.O=c1cnc2ccc(=O)n3c2n1C[C@H]3CN1CCC(NCc2cc3c(cn2)OCCC3)CC1` [gepotidacin mesylate anhydrate], for which, in data set [1], the “stability of the form” value is given as “unstable under ambient conditions”.

On to `O=c1ccc2ncc(=O)n3c2n1C[C@H]3CN1CCC(NCc2cc3c(cn2)OCCC3)CC1` [gepotidacin mesylate dihydrate (Form 1)], for which the solubility in data set [2] (Water) was over 180 mg/mL; in data set [2] (fasted state simulated intestinal fluid (FaSSIF), FaSSIF (pH 6.5)), 113 mg/mL; in data set [2] (fed state simulated intestinal fluid (FeSSIF), FeSSIF (pH 6.5)) it was 99 mg/mL; in data set [2] (simulated gastric fluid (SGF), simulated gastric fluid, SGF (pH 1.6)), 175 mg/mL.
